Experiment [1] addresses T1, CDK12 protein level in CAL-120 breast cancer cells (Homo sapiens, UniProt Q9NYV4).
T1 construct: endogenous in cells; host or cells: CAL-120 human breast cancer cells (DSMZ ACC 459)
Nature of the experiment: CDK12 protein level: Protein Simple (CDK12, CAL-120). The class given is cell-based. The note with it: CAL-120 cells, 18 h with compound, CDK12/HSP90 peak area ratio vs vehicle, median, read-out: CDK12 protein level in CAL-120 breast ca cells, DC50-[mol/l] (median). The protocol:
CAL-120 human breast cancer cells (DSMZ ACC 459) were seeded at 300,000 cells/well in 6-well plates containing 2 mL of growth medium (DMEM, 10% FCS, glutamine) and incubated for 24 h at 37° C. in an humidified incubator. Test compounds were added at various concentrations, control wells received solvent (DMSO), and the plates were incubated for another 18 h at 37° C. Cells were washed 2 times with PBS and lysed in 75 microL lysis buffer (MSD-Puffer (MSD, #R60TX-2), +1% 505S+PhosSTOP (Roche #04906837001)+complete mini (Roche #04693159001)) by scraping. The lysates were pushed 2 times through Qiashedders followed by centrifugation at 14,000 rpm for 30-50 sec. The supernatant was stored at −20° C. Proteins were separated by applying 0.4 microgramms of protein lysate to Protein Simple 66-440 kDa (Protein Simple #SM-S002) size assay columns on a PEGGY SUE or SALLY SUE equipment according to the supplier's manual. CDK12 and HSP90 (loading control) were detected using anti-human CDK12 antibody (Cell Signaling Technologies (CST) #11793) at 1:25 dilution and anti-human HSP90 antibody (CST #4877) at 1:5,000 dilution. CDK12 and HSP90 peak areas were determined using Protein Simple Compass software. Ratio of CDK12/HSP90 peak areas were calculated for each sample, and […] values (degrading concentration to achieve 50% reduction relative to vehicle treated control) were determined by means of a 4 parameter fit.

Experiment [2] deals with T2, CDK9/CycT1 (Homo sapiens, UniProt P50750).
T2 construct: Recombinant full-length His-tagged human CDK9 and CycT1; purchased Life Technologies PV4131; host or cells: insect cells
As to the kind of experiment: CDK9/CycT1 high ATP kinase assay (TR-FRET, 2 mM ATP). In kind it is biochemical. To be noted: 2 mM ATP (high ATP); median; read-out: CDK9/CyclinT1, 2 mM ATP (high ATP), IC50 (median). The method in brief:
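Full-length His-tagged human CDK9/CycT1 (insect cell, ~0.5 μg/mL) preincubated 15 min at 22 °C with compound in Tris pH 8.0, MgCl2, DTT buffer before reaction with biotinylated peptide substrate at high ATP (2 mM).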
(In general: In TR-FRET formats the signal depends on donor and acceptor labels being close together.)

Experiment [3] has as its system MDA-MB-231, human breast cancer cells. Nature of the experiment: Proliferation assay MDA-MB-231 (crystal violet, 4 days). In kind it is cell-based. To be noted: Homo sapiens, MDA-MB-231, 96 h, MDA-MB-231 cells, median, read-out: Prolif-MDA MB-231, IC50-[mol/l] (median). The protocol: Human tumour cells were originally obtained from the American Type Culture Collection (ATCC), or from the Deutsche Sammlung von Mikroorganismen und Zellkulturen (DSMZ, German Collection of Microorganisms and Cell Cultures). Cultivated tumour cells (CAL-120, human breast adenocarcinoma cells, DSMZ ACC-459; MDA-MB-231, human breast cancer cells, ATCC HTB-26) were plated at a density of 4,000 cells/well in a 96-well multititer plate in 200 microL of their respective growth medium supplemented 10% fetal calf serum. After 24 hours, the cells of one plate (zero-point plate) were stained with crystal violet (see below), while the medium of the other plates was supplemented with the test substances in various concentrations (0 micromol/L, as well as in the range of 0.01-10 micromol/L; the final concentration of the solvent dimethyl sulfoxide was adjusted to 0.1%) using a Tecan HP D300 Digital Dispenser. The cells were incubated for 4 days in the presence of test substances. Cell proliferation was determined by staining the cells with crystal violet: the cells were fixed by adding 20 microL/measuring point of an 11% glutaric aldehyde solution for 15 minutes at room temperature. After three washing cycles of the fixed cells with water, the plates were dried at room temperature. The cells were stained by adding 100 microL/measuring point of a 0.1% crystal violet solution (pH 3.0). After three washing cycles of the stained cells with water, the plates were dried at room temperature. The dye was dissolved by adding 100 microL/measuring point of a 10% acetic acid solution. The extinction was determined by photometry at a wavelength of 595 nm. The change of cell number, in percent, was calculated by normalization of the measured values to the extinction values of the zero-point plate (=0%) and the extinction of the untreated (0 μM) cells (=100%). The IC50 values (inhibitory concentration at 50% of maximal effect) were determined by means of a 4 parameter fit.

T2 sequence (P50750 whole entry): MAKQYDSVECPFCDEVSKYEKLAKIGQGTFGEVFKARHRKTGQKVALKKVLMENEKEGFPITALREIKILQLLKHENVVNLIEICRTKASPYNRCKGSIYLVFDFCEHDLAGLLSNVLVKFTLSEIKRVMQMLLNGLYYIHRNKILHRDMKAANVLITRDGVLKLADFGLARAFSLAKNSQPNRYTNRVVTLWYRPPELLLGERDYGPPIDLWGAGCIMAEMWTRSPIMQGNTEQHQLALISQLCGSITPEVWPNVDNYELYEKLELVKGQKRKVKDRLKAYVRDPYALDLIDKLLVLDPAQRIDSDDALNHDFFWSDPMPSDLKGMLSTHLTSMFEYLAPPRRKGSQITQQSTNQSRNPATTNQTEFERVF
T2 sequence (O60563 whole entry partner): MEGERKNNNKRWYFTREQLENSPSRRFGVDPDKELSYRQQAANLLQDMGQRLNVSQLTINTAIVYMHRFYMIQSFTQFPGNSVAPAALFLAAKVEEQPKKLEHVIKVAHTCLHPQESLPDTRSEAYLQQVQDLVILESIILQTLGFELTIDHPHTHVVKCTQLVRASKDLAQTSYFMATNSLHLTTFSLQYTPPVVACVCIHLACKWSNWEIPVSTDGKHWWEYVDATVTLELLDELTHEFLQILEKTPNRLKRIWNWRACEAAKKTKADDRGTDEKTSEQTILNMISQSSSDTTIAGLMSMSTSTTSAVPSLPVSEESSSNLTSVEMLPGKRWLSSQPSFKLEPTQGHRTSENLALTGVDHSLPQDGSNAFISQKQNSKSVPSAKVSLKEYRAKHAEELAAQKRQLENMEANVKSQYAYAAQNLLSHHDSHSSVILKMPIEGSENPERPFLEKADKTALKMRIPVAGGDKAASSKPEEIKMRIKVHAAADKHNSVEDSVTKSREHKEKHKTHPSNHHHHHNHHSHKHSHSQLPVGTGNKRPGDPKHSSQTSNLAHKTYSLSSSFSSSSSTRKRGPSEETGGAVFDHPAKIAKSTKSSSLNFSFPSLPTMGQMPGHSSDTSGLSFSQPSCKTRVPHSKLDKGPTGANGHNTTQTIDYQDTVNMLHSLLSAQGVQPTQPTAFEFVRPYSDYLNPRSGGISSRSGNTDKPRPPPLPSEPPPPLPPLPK
T1 sequence (Q9NYV4 whole entry): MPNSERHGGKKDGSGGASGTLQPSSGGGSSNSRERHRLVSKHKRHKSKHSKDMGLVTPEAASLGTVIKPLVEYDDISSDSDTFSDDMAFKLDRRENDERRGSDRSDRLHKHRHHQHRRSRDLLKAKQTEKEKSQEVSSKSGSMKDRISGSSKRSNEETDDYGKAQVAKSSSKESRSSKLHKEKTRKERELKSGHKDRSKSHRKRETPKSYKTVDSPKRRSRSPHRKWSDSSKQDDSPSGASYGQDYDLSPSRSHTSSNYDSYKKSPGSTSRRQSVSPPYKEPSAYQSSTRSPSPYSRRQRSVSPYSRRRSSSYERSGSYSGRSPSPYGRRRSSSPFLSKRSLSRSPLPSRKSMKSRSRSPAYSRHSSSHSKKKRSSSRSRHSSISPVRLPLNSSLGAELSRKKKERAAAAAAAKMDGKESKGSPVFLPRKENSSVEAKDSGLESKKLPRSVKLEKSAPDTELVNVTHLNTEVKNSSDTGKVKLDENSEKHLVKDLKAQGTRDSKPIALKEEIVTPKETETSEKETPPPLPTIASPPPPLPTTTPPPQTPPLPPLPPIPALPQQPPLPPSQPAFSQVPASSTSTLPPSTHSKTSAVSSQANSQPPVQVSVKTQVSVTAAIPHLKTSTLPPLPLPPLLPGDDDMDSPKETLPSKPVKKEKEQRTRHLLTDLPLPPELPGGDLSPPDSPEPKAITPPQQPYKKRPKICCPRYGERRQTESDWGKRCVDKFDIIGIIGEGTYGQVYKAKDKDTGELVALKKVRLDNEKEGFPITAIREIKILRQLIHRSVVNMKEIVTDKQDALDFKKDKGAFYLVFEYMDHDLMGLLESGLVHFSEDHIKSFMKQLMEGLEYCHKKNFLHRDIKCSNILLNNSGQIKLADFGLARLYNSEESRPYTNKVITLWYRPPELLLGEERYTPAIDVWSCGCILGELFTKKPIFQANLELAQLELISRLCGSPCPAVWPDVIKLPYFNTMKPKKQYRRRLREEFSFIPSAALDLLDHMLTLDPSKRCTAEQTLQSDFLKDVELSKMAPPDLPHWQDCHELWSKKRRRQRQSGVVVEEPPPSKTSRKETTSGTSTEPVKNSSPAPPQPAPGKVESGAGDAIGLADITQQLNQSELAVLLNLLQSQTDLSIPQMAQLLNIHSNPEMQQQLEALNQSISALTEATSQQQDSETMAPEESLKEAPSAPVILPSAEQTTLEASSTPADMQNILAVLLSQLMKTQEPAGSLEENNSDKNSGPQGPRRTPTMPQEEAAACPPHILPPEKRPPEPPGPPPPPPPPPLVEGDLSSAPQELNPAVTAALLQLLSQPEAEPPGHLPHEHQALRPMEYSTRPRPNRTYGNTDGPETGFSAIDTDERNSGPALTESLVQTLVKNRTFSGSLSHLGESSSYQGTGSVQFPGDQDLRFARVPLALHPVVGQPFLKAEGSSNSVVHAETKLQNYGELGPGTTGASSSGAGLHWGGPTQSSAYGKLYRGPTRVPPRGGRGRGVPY
T1 sequence (O75909 whole entry partner): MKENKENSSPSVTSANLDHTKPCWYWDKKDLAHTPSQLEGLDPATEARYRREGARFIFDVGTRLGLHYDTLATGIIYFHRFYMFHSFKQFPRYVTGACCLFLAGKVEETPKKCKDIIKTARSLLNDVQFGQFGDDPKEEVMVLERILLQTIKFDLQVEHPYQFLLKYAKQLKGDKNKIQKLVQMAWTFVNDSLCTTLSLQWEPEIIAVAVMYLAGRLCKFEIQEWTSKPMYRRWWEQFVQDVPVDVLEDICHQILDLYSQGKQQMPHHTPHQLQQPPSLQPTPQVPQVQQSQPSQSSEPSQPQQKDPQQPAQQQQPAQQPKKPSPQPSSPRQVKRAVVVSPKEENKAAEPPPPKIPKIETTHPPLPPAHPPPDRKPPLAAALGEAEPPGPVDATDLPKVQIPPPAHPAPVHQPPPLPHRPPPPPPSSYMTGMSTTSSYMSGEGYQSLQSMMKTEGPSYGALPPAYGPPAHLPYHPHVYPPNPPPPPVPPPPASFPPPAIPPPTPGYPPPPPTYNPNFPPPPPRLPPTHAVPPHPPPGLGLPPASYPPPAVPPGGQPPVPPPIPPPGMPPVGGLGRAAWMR

With `Brc1cnn2c(NCc3nc4ccccc4[nH]3)nc(N3CCOCC3)nc12` [Example 4, N-[(1H-benzimidazol-2-yl)methyl]-8-bromo-2-(morpholin-4-yl)pyrazolo[1,5-a][1,3,5]triazin-4-amine], in experiment [1], the DC50 is 0.476 nM. Besides, the results for the IC50 in experiment [2] and in experiment [3] were > 20 µM and 25.3 nM, respectively.

Take `CN1CCN(c2nc(NCc3nc4cc(F)ccc4[nH]3)n3ncc(C4CC4)c3n2)CC1` [Example 164, 8-cyclopropyl-N-[(5-fluoro-1H-benzimidazol-2-yl)methyl]-2-(4-methylpiperazin-1-yl)pyrazolo[1,5-a][1,3,5]triazin-4-amine]: the DC50 in experiment [1] was 1.08 nM. In addition, the IC50 in experiment [2] is > 20 µM; in experiment [3] it was 25.7 nM.

As to `Fc1cccc(-c2nnc(CNc3nc(N4CCNCC4)nc4c(Br)cnn34)[nH]2)c1` [Example 152, 8-bromo-N-{[5-(3-fluorophenyl)-4H-1,2,4-triazol-3-yl]methyl}-2-(piperazin-1-yl)pyrazolo[1,5-a][1,3,5]triazin-4-amine], the IC50 is 1.99 µM in experiment [2] and 12.7 nM in experiment [3].

Consider `Clc1ccc2[nH]c(CNc3nc(N4CCOCC4)nc4c(Br)cnn34)nc2c1` [Example 162, 8-bromo-N-[(5-chloro-1H-benzimidazol-2-yl)methyl]-2-(morpholin-4-yl)pyrazolo[1,5-a][1,3,5]triazin-4-amine], for which the results for the IC50 in experiment [2] and in experiment [3] were 17.4 µM and 4.02 nM, respectively.

Take `C[C@@H]1CN(c2nc(NCc3nc4ccccc4[nH]3)n3ncc(Br)c3n2)C[C@H](C)N1C` [Example 129, N-(1H-benzimidazol-2-ylmethyl)-8-bromo-2-[(3R,5S)-3,4,5-trimethylpiperazin-1-yl]pyrazolo[1,5-a][1,3,5]triazin-4-amine]: the IC50 in experiment [2] is > 20 µM; in experiment [3], 132 nM.

For the compound `CN1CCN(c2nc(NCc3nc4cc(Cl)ccc4[nH]3)n3ncc(Br)c3n2)CC1` [Example 163, 8-bromo-N-[(5-chloro-1H-benzimidazol-2-yl)methyl]-2-(4-methylpiperazin-1-yl)pyrazolo[1,5-a][1,3,5]triazin-4-amine], the IC50 in experiment [2] is > 20 µM; in experiment [3] it was 3.96 nM.

Regarding `CN1CCN(c2nc(NCc3nc4ccccc4[nH]3)n3ncc(Br)c3n2)CC1=O` [Example 131, 4-(4-{[(1H-benzimidazol-2-yl)methyl]amino}-8-bromopyrazolo[1,5-a][1,3,5]triazin-2-yl)-1-methylpiperazin-2-one], the IC50 in experiment [2] is > 20 µM; in experiment [3], 682 nM.

As for `[O-][S+]1CCN(c2nc(NCc3nc4ccccc4[nH]3)n3ncc(Br)c3n2)CC1` [Example 144, 4-(4-{[(1H-benzimidazol-2-yl)methyl]amino}-8-bromopyrazolo[1,5-a][1,3,5]triazin-2-yl)-1lambda^4-thiomorpholin-1-one], the results for the IC50 in experiment [2] and in experiment [3] were > 20 µM and 185 nM, respectively.

As to `Cc1ccc2[nH]c(CNc3nc(N4CCN(C)CC4)nc4c(Br)cnn34)nc2c1` [Example 158, 8-bromo-N-[(5-methyl-1H-benzimidazol-2-yl)methyl]-2-(4-methylpiperazin-1-yl)pyrazolo[1,5-a][1,3,5]triazin-4-amine], the IC50 was > 20 µM in experiment [2] and 4.24 nM in experiment [3].

For `CN1CCN(c2nc(NCc3nc4c(F)c(F)ccc4[nH]3)n3ncc(Br)c3n2)CC1` [Example 133, 8-bromo-N-[(4,5-difluoro-1H-benzimidazol-2-yl)methyl]-2-(4-methylpiperazin-1-yl)pyrazolo[1,5-a][1,3,5]triazin-4-amine], the IC50 in experiment [2] is > 20 µM; in experiment [3], 4.94 nM.

Take `NCCc1cccc2[nH]c(CNc3nc(N4CCOCC4)nc4c(Br)cnn34)nc12` [Example 112, N-{[7-(2-aminoethyl)-1H-benzimidazol-2-yl]methyl}-8-bromo-2-(morpholin-4-yl)pyrazolo[1,5-a][1,3,5]triazin-4-amine]: the DC50 in experiment [1] was found to be 58.8 nM. In addition, the IC50 was > 20 µM in experiment [2] and 186 nM in experiment [3].

Take `C[C@H]1CN(c2nc(NCc3nnc(-c4cccc(F)c4)[nH]3)n3ncc(Br)c3n2)CCN1C` [Example 154, 8-bromo-2-[(3S)-3,4-dimethylpiperazin-1-yl]-N-{[5-(3-fluorophenyl)-4H-1,2,4-triazol-3-yl]methyl}pyrazolo[1,5-a][1,3,5]triazin-4-amine]: the IC50 in experiment [2] was found to be 2.56 µM; in experiment [3], 26.2 nM.
